Assay results: ChEMBL document CHEMBL1641475, “Synthesis, hypolipidemic and hypoglycemic activity of some novel 2-(4-(2-substituted aminothiazole-4-yl) phenoxy)-2-methyl propanoic acid derivatives” (2011)

What was measured:
Assay type in all cases: functional
Rattus norvegicus [1] = assay: Antihyperlipidemic activity in high fat diet-induced hyperlipidemic Sprague-Dawley rat assessed as blood LDL level at 250 mg/kg, po after 7 days (reference value: 75.5 +/- 1.24 mg/dl)
Rattus norvegicus [2] = assay: Antihyperlipidemic activity in high fat diet-induced hyperlipidemic Sprague-Dawley rat assessed as blood triglyceride level at 250 mg/kg, po after 7 days (reference value: 135 +/- 1.592 mg/dl)
Rattus norvegicus [3] = assay: Antihyperlipidemic activity in high fat diet-induced hyperlipidemic Sprague-Dawley rat assessed as blood cholesterol level at 250 mg/kg, po after 7 days (reference value: 121.5 +/- 1.335 mg/dl)
Rattus norvegicus [4] = assay: Antihyperlipidemic activity in high fat diet-induced hyperlipidemic Sprague-Dawley rat assessed as blood VLDL level at 250 mg/kg, po after 7 days (reference value: 27 +/- 0.3183 mg/dl)
Rattus norvegicus [5] = assay: Antihyperlipidemic activity in high fat diet-induced hyperlipidemic Sprague-Dawley rat assessed as blood HDL level at 250 mg/kg, po after 7 days (reference value: 19 +/- 0.5774 mg/dl)
Rattus norvegicus [6] = assay: Antihyperglycemic activity in high fat diet-induced hyperglycemic Sprague-Dawley rat assessed as blood glucose level at 250 mg/kg, po after 7 days (reference value: 106.3 +/- 0.6666 mg/dl)

SMILES | Activity (Rattus norvegicus [1]) | Activity (Rattus norvegicus [2]) | Activity (Rattus norvegicus [3]) | Activity (Rattus norvegicus [4]) | Activity (Rattus norvegicus [5]) | Activity (Rattus norvegicus [6])
CC(C)(Oc1ccc(-c2csc(NCC(=O)c3ccc(Cl)cc3)n2)cc1)C(=O)O | 61.18 mg/dL | 77.33 mg/dL | 108.3 mg/dL | 16.23 mg/dL | 32.5 mg/dL | 74.33 mg/dL
CC(C)(Oc1ccc(-c2csc(NC(=O)C(=O)Cl)n2)cc1)C(=O)O | 49.35 mg/dL | 82.67 mg/dL | 96.5 mg/dL | 15.47 mg/dL | 32.5 mg/dL | 75.17 mg/dL
CC(C)(Oc1ccc(-c2csc(NC(=O)c3ccccc3)n2)cc1)C(=O)O | 43.67 mg/dL | 85.5 mg/dL | 96.5 mg/dL | 15.47 mg/dL | 37 mg/dL | 74.5 mg/dL
CC(C)OC(=O)C(C)(C)Oc1ccc(C(=O)c2ccc(Cl)cc2)cc1 [FENOFIBRATE] | 55.33 mg/dL | 73.17 mg/dL | 105.2 mg/dL | 14.67 mg/dL | 33.5 mg/dL | 70.5 mg/dL
CC(=O)Nc1nc(-c2ccc(OC(C)(C)C(=O)O)cc2)cs1 | 60.63 mg/dL | 80.5 mg/dL | 108.3 mg/dL | 16.1 mg/dL | 32.67 mg/dL | 81.5 mg/dL
CC(C)(Oc1ccc(-c2csc(NC(=O)CC(=O)Cl)n2)cc1)C(=O)O | 67.75 mg/dL | 81.17 mg/dL | 116.5 mg/dL | 16.53 mg/dL | 35.83 mg/dL | 66.67 mg/dL
CC(C)(Oc1ccc(-c2csc(NC(=O)CCl)n2)cc1)C(=O)O | 59.53 mg/dL | 85.5 mg/dL | 111.5 mg/dL | 17.1 mg/dL | 34.33 mg/dL | 72.33 mg/dL
